# Results published in US20250206721A1, “Prostaglandin Receptor EP2 Antagonists, Derivatives, and Uses Related Thereto” (Emory University, priority 2019, published 2025).
# Counter-ions that a name gives are not always drawn. Like-named read-outs stand apart in the source and are kept apart here.
# Columns and labels:
# [1] = Metabolite investigation in mouse liver microsomes; type: in vitro ADME; conditions: 2a after 5 minutes; 3 after 20 minutes
# [2] = Mouse liver microsomal (MLM) stability
# physchem [3] = conditions: pH 2, simulated gastric fluid, kinetic from dmso stock
# [4] = Kinetic aqueous solubility in PBS by nephelometry; conditions: for Aqueous Solubility: PBS buffer (pH 7.4) with 1% DMSO, nephelometry
# human EP4 receptor = human EP4 receptor (Homo sapiens, UniProt P35408); assay: Cell-based cAMP TR-FRET assay on EP4 (agonist PGE2); conditions: selectivity index EP4 KB/EP2 KB, fold
# Sequence of human EP4 receptor (P35408 whole entry): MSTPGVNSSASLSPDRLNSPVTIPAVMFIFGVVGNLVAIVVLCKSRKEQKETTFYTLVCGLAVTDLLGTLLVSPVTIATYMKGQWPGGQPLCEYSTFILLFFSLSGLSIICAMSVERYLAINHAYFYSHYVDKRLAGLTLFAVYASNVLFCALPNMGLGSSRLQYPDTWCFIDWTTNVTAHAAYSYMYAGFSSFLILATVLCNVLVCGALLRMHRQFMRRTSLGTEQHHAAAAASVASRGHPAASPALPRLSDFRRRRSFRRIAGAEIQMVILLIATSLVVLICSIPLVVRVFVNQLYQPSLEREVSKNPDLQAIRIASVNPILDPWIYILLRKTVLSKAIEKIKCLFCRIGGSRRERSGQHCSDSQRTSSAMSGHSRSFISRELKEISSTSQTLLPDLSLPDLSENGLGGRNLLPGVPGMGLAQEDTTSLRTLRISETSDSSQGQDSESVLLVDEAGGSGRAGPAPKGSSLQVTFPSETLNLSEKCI
# human IP receptor = human IP receptor (Homo sapiens, UniProt P43119); assay: Cell-based cAMP TR-FRET assay on IP (agonist iloprost); conditions: selectivity index IP KB/EP2 KB, fold
# Sequence of human IP receptor (P43119 whole entry): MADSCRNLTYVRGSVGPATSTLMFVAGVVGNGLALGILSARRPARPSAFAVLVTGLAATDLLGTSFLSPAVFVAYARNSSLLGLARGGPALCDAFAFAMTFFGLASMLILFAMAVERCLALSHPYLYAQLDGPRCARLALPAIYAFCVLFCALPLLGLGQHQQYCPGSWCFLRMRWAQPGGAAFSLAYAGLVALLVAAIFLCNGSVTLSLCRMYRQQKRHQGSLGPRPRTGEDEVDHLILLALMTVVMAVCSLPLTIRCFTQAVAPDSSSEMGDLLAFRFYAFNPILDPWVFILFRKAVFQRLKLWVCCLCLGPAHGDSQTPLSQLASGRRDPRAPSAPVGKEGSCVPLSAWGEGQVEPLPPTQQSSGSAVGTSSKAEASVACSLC
# human DP1 receptor = target: T1, human DP1 receptor (Homo sapiens, UniProt Q13258); conditions: selectivity index DP1 KB/EP2 KB, fold
# T1 sequence (Q13258 1-359): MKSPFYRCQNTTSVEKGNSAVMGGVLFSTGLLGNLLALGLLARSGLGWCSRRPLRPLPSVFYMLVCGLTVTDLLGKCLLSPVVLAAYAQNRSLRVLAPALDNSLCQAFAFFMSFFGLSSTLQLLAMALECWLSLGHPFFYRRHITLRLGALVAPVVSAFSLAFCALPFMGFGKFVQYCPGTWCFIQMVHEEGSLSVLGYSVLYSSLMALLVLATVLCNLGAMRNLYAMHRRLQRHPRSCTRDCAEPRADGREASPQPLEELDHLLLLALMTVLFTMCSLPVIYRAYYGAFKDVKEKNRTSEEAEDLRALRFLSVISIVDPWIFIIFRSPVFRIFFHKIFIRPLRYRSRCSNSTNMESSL
# [5] = mouse
# human EP2 receptor = target: T2, human EP2 receptor (Homo sapiens, UniProt P43116); assay: Cell-based cAMP TR-FRET assay, Schild KB on EP2; conditions: for Kb: Schild KB, agonist PGE2, antagonist concentration 1 μM, C6G cells expressing human EP2
# T2 construct: expressed in transfected cells
# T2 sequence (P43116 whole entry): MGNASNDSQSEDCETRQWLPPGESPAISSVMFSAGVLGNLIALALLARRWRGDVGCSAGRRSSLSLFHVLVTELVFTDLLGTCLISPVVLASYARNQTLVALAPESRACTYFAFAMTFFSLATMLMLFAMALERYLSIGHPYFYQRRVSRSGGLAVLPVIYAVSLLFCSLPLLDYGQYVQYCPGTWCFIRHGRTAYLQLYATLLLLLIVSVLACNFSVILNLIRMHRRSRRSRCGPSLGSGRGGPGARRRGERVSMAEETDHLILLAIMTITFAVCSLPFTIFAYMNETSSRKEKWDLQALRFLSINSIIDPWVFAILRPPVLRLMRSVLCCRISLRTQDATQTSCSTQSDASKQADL
# C6glioma cells = conditions: rat
# [6] = pH 7.4
# [7] = mouse; remark: listed apart in the source
# [8] = Solubility in simulated gastric fluid (SGF) by nephelometry
# [9] = Thermodynamic shake flask solubility in neat water
# physchem [10] = conditions: water, thermodynamic from solid
# in vitro = conditions: mouse, pooled liver microsomes
smiles,measurement,setting,value
Cc1[nH]c2ccccc2c1CCNC(=O)c1ccc(-c2nnn[nH]2)cc1 [Compound 3],metabolites after incubation in mouse liver microsomes,[1],did not produce any fragments even after 20 minutes of incubation
same,half-life,"in vivo; mouse, po, 10 mg/kg",> 6 h
same,MLMt1/2,"[2]; 1 μM compound, 0.5 mg/mL liver microsomes (compounds 1 and 3)",>60 min
"COc1ccccc1-c1ncc(C(=O)NCCc2c(C)[nH]c3ccccc23)cn1 [Compound 14a, 2-(2-Methoxyphenyl)-N-(2-(2-methyl-1H-indol-3-yl)ethyl)pyrimidine-5-carboxamide]",half-life,"in vivo; C57BL/6, mouse, ip, 10 mg/kg",< 1 h
same,solubility,physchem [3],> 100 µM
same,Aqueous Solubility,[4],71 µM
same,S.I (EP4/EP2),human EP4 receptor,517
same,S.I (IP/EP2),human IP receptor,730
"Cc1[nH]c2ccccc2c1CCNC(=O)c1cnc(Nc2ccccn2)nc1 [Compound 20a, N-(2-(2-Methyl-1H-indol-3-yl)ethyl)-2-(pyridin-2-ylamino)pyrimidine-5-carboxamide]",Aqueous Solubility,[4],27 µM
same,S.I. (DP1/EP2),human DP1 receptor,>900
same,S.I (IP/EP2),human IP receptor,>900
"Cc1ccnc(Nc2ncc(C(=O)NCCc3c(C)[nH]c4ccccc34)cn2)c1 [Compound 20b, N-(2-(2-Methyl-1H-indol-3-yl)ethyl)-2-((4-methylpyridin-2-yl)amino)pyramidine-5-carboxamide]",MLM T½,"[2]; 1 μM compound, 0.125 mg/mL liver microsomes, NADPH",8 min
same,Aqueous Solubility,[4],25 µM
"Cc1[nH]c2ccccc2c1CCNC(=O)c1cnc(Nc2cc(F)ccn2)nc1 [Compound 20c, 2-((4-Fluoropyridin-2-yl)amino)-N-(2-(2-methyl-1H-indol-3-yl)ethyl)pyrimidine-5-carboxamide]",stability in vivo,[5],unstable in vivo
same,Aqueous Solubility,[4],15 µM
same,S.I (EP4/EP2),human EP4 receptor,>1500
same,S.I (IP/EP2),human IP receptor,>1500
"Cc1[nH]c2ccccc2c1CCNC(=O)c1cnc(Nc2cccc(F)n2)nc1 [Compound 20f, 2-((6-Fluoropyridin-2-yl)amino)-N-(2-(2-methyl-1H-indol-3-yl)ethyl)pyrimidine-5-carboxamide]",fold higher half-life in liver microsomes,"[2]; 24i vs 20o, 20c vs 20b, 20f vs 20e",8 fold
same,Aqueous Solubility,[4],41 µM
"COc1cccc(Nc2ncc(C(=O)NCCc3c(C)[nH]c4ccccc34)cn2)n1 [Compound 20h, 2-((6-Methoxypyridin-2-yl)amino)-N-(2-(2-methyl-1H-indol-3-yl)ethyl)pyrimidine-5-carboxamide]",Kb,human EP2 receptor,7.8 nM
same,Aqueous Solubility,[4],15 µM
same,S.I. (DP1/EP2),human DP1 receptor,>1280
same,S.I (IP/EP2),human IP receptor,>1280
"Cc1cc(C)nc(Nc2ncc(C(=O)NCCc3c(C)[nH]c4ccccc34)cn2)c1 [Compound 20o, 2-((4,6-Dimethylpyridin-2-yl)amino)-N-(2-(2-methyl-1H-indol-3-yl)ethyl)pyrimidine-5-carboxamide]",CC50,C6glioma cells,> 50000 nM
same,Aqueous Solubility,[6],15 µM
same,MLMt1/2,[7],17 min
same,substrate of efflux pumps,MDR1-MDCK cell line,not the substrate of efflux pumps
same,"Permeability across MDR1-MDCK cell line, A-B",MDR1-MDCK cell line; dog,A-B: 13.2 × 10^−6 cm/s
same,"Permeability across MDR1-MDCK cell line, B-A",MDR1-MDCK cell line; dog,B-A: 22.2 × 10^−6 cm/s
same,bioavailability,"in vivo; mouse, po",25%
same,Aqueous solubility of corresponding HCl salt in SGF,"[8]; HCl salt, simulated gastric fluid pH 2.0, nephelometry",>250 µM
same,solubility,"[8]; pH 2, simulated gastric fluid, kinetic from dmso stock",> 100 µM
"Cc1cc(C)nc(Nc2ncc(C(=O)NCCc3c(C)[nH]c4ccccc34)cn2)c1 [Compound 20o.HCl, 2-((4,6-Dimethylpyridin-2-yl)amino)-N-(2-(2-methyl-1H-indol-3-yl)ethyl)pyrimidine-5-carboxamide.Hydrochloride]",water pH after dissolving,"[9]; 2 mg/mL in neat water, starting pH 6.4",3.5
same,water solubility,"[9]; thermodynamic solubility in water, HCl salts",1000 µg/mL
same,solubility,"[9]; water, thermodynamic from solid",1100 to 1200 µg/mL
"Cc1[nH]c2ccccc2c1CCNC(=O)c1cnc(Nc2cccnc2)nc1 [Compound 20q, N-(2-(2-Methyl-1H-indol-3-yl)ethyl)-2-(pyridin-3-ylamino)pyrimidine-5-carboxamide]",Kb,human EP2 receptor,8.3 nM
same,Aqueous Solubility,[4],17 µM
same,S.I (EP4/EP2),human EP4 receptor,>1200
same,S.I (IP/EP2),human IP receptor,>1200
"Cc1cc(C)nc(Nc2ncc(C(=O)NCCc3c(C)[nH]c4c(F)cccc34)cn2)c1 [Compound 24aa, 2-((4,6-dimethylpyridin-2-yl)amino)-N-(2-(7-fluoro-2-methyl-1H-indol-3-yl)ethyl)pyrimidine-5-carboxamide]",Kb,human EP2 receptor,1.7 nM
same,Kp at 0.5 h,"in vivo; C57BL/6, mouse",0.4
same,half-life,"in vivo; mouse, ip, 20 mg/kg",5.4 h
same,solubility,physchem [3],> 250 µM
same,solubility,physchem [10],1100 to 1200 µg/mL
same,solubility at 24 h,physchem [10],2640 µM
same,half-life at 1 μM,in vitro,0.383 h
same,MLMt1/2,"[2]; 1 μM compound, 0.125 mg/mL liver microsomes (Table 7)",23 min
same,solubility,"[4]; PBS with 1% DMSO, pH 7.4, aqueous buffer, kinetic from dmso stock",150 µM
"Cc1cc(C)nc(Nc2ncc(C(=O)NCCc3c(C)[nH]c4ccc(Cl)cc34)cn2)c1 [Compound 24b, N-(2-(5-Chloro-2-methyl-1H-indol-3-yl)ethyl)-2-((4,6-dimethylpyridin-2-yl)amino)pyrimidine-5-carboxamide]",Kb,human EP2 receptor,28.3 nM
same,Aqueous Solubility,[4],20 µM
same,S.I (EP4/EP2),human EP4 receptor,>350
same,S.I (IP/EP2),human IP receptor,>350
"Cc1cc(C)nc(Nc2ncc(C(=O)NCCc3c(C)[nH]c4c(F)cc(F)cc34)cn2)c1 [Compound 24c, N-(2-(5,7-Difluoro-2-methyl-1H-indol-3-yl)ethyl)-2-((4,6-dimethylpyridin-2-yl)amino)pyrimidine-5-carboxamide]",Kb,human EP2 receptor,20 nM
same,solubility,physchem [3],> 100 µM
same,S.I (IP/EP2),human IP receptor,>500
"Cc1[nH]c2ccccc2c1CCNC(=O)c1ccc(-c2cnc[nH]2)cc1 [TG8-260, 4-(1H-imidazol-5-yl)-N-(2-(2-methyl-1H-indol-3-yl)ethyl)benzamide]",inhibition of PGE2-induced human EP2 receptor activation,"human EP2 receptor; concentration-response, in words",inhibits PGE2-induced human EP2 receptor activation in a concentration dependent manner
same,S.I (EP4/EP2),human EP4 receptor,at least 300
same,S.I. (DP1/EP2),human DP1 receptor,at least 300
same,S.I (IP/EP2),human IP receptor,at least 300
"COc1cccc2c1C(=O)c1c(O)c3c(c(O)c1C2=O)C[C@@](O)(C(=O)CO)C[C@@H]3O[C@H]1C[C@H](N)[C@H](O)[C@H](C)O1 [doxorubucin, reference compound]",CC50,C6glioma cells,900 nM
